Data published in patent US20100130597A1, “DNA-PKCS MODULATES ENERGY REGULATION AND BRAIN FUNCTION” (The United State of America, as represented by the …, priority 2007, published 2010).

Legend:
[1] = tested on: AMPK; assay: AMPK activation in mouse embryonic fibroblasts (wild-type, DNA-PK null, LKB1-null); type: cell-based
Excerpt: The hypothesis that DNA-PKcs inhibition/deficiency induces activation of the LKB1-AMPK pathway was further tested using DNA-PK^−/− (null) mouse embryonic fibroblasts (MEFs) and LKB1-null MEFs treated with NU7026.

[2] = Glucose levels, insulin tolerance and glucose tolerance tests in treated mice; type: in vivo; conditions: mice, summary statement
Procedure: The therapeutic potential of DNA-PKcs inhibitors to treat insulin resistance and diabetes was tested in vivo using high-fat induced type 2 diabetes and obesity models. We examined the effects of DNA-PKcs inhibition by feeding C57BL6/J mice with Compound 36 (Cpd36) or vehicle. Mice were treated with Cpd36 (8 mg/kg body weight) twice daily by oral gavage for three months in all efficacy studies shown in FIGS. 40-47.

[3] = Hot plate test, latency for pain reaction; type: in vivo, mice; conditions: FIG. 48E
Procedure: Epidemiological studies indicate that people with mood disorders are twice as likely to have chronic pain compared to people without mood disorders (Ohayon et al., Arch. Gen. Psychiatry 60: 39-47 (2003)). Although it is possible that pain contributes to the depressed mood, it is also possible that perception of pain is increased in people with mood disorders. To determine whether SCID mice have altered pain tolerance, the latency for pain reaction to a hot plate was measured. […] (FIG. 30) and at 55° C.
Because tolerance to pain (Example 26) is also linked to the serotonergic pathways, measurements of the latency to pain reaction on hot plate after saline, serotonin reuptake inhibitor fluoxetine (Prozac) or serotonin antagonist GR38032F (Zofran) injection were made.
(§1) Elevated plus maze tests, light/dark chamber tests, forced swim tests (FST) and hot plate tests were performed as described earlier.

[4] = Blood-brain barrier penetration inferred from behavioural effects; type: in vivo, mice; conditions: inferred from decreased anxiety/depression at a low-dose
Excerpt: For any central nervous system drugs, a major rate-limiting step for uptake into the brain is BBB permeability. […] The BBB is an essential physiological barrier for the maintenance and regulation of brain function. It is comprised of brain microvascular endothelial cells that are connected by tight junctions. This transvascular route to the brain is impenetrable to the majority of drugs. Enhanced BBB permeability is obtained, for example, by increasing the lipid solubility of the water-soluble molecules.

[5] = tested on: LKB1; assay: LKB1 IP kinase assay of muscle of treated mice; type: in vivo; conditions: mice treated with a low-dose, data not shown
[6] = tested on: PI3K; conditions: related kinase, selectivity; cited from earlier work
[7] = biological target: T1, DNA-PKcs (Homo sapiens, UniProt P78527); assay: DNA-PKcs activation in MCF7 cells, immunoblot for phosphorylated Ser2056; type: cell-based; conditions: data not shown
T1 construct: endogenous in cells; host or cells: MCF7 (ATCC)
Procedure: (§2) MCF7 cells were obtained from the ATCC. MCF7 cells in G0 were treated with varying doses of H2O2 (FIG. 1). The cells were examined while in the G0 phase of their life cycle to mimic the post-mitotic state of cells in vivo. Low passage MCF-7 cells in G0 were exposed to varying concentrations of H2O2 for 60 minutes with or without Euk-134 or ionizing radiation (5 Gy). For Western blot analysis of DNA-PKcs activation and the activation of other signaling pathways in this study, the following antibodies were used: ACC1 (Cell Signaling); p-ACC1 (Upstate); AMP-activated protein kinase (AMPK; Cell Signaling); p-AMPK(T172) (Cell Signaling); DNA-PK (Lab Vision); p53 (Novocastra); p-DNA-PK(S2056) (Abeam); p-p53(S15) (Cell Signaling); γ-H2AX (Upstate); 53BP1 (Novus Biologicals).
Activation of DNA-PKcs was visualized by immunoblotting cell lysates with antibody specific for phosphorylated Ser2056, which is autophosphorylated during DNA-PKcs activation (Chen et al., J. Biol. Chem. 280: 14709-15 (2005)) (FIG. 1). […] Instead, H2O2 increased DNA-PKcs activation, and such activation was abrogated by the antioxidant Euk-134 (FIG. 1), a potent synthetic superoxide dismutase and catalase mimetic (Chatterjee, Am. J. Nephrol. 24: 165-77 (2004)).
MCF7 cells were then cultured in 25 mM glucose. Aliquots of the cultured MCF7 cells were treated with ionizing radiation and/or the DNA-PKcs-specific inhibitor NU7026. Treatment with glucose and ionizing radiation increased DNA-PKcs phosphorylation (data not shown). […] The basal activity of DNA-PKcs in MCF-7 cells in 25 mM glucose was detectable even in the absence of ionizing radiation, but this basal activity was suppressed with the DNA-PKcs-specific inhibitor NU7026 (data not shown).

[8] = Light/dark chamber test; type: in vivo; conditions: treated vs untreated mice
Procedure: WT and SCID mice were tested in another anxiety test using the light-dark box (Bourin and Hascoet, Eur J Pharmacol 463:55 (2003)). The light-dark box test is based on the innate aversion of rodents to brightly illuminated areas and on the spontaneous exploratory behavior of rodents in response to a mildly stressful situation, that is, a novel environment and light (Crawley and Goodwin Pharmacol Biochem Behav 13:167, 1980). In the light-dark test, increased activity in the light compartment indicates decreased anxiety.
as §1

[9] = tested on: C2C12 cells; assay: Mitochondrial DNA copy number in C2C12 cells; type: cell-based; conditions: C2C12 cells, 2.5 μM, FIG. 49C
Procedure: Quantitative Real-Time PCR was used to assess the relative amounts of nuclear DNA and mtDNA, to permit assessment of the ratio of mtDNA to nucleic DNA, which reflects the tissue concentration of mitochondria per cell. Muscle tissues were homogenized and digested with Proteinase K overnight in a lysis buffer for DNA extraction by conventional phenol-chloroform method. Quantitative PCR was performed using the following primers: […]
Increased mitochondrial function boosts energy production and physical endurance. […] Further tests were therefore conducted to ascertain whether DNA-PKcs inhibitor elevates mitochondrial biogenesis and expression of PGC-1α and Sirt, which are important for mitochondrial biogenesis. […] It is important to note that only 2.5 μM of NU7026 was required to induce a similar level of Sirt1 to that induced by 25-50 μM Resveratrol, a well-known, potent Sirt1 activator. In FIG. 49C, mitochondrial DNA copy number increased (>1.8 fold) in C2C12 cells after 2.5 μM NU7026 treatment.

[10] = tested on: AMPK; assay: AMPK activation in quiescent MCF7 cells; type: cell-based; conditions: 1 and 2.5 μM, FIG. 20
Procedure: as §2
ENLITEN ATP assay kit (Promega) and ApoGlow assay kit (Cambrex), respectively. […] To determine whether the AMPK-inhibitory function of DNA-PKcs is cell autonomous, quiescent MCF7 cells were treated with 1 and 2.5 μM NU7026.

O=c1cc(N2CCOCC2)oc2c1ccc1ccccc12 [NU7026, 2-(morpholin-4-yl)-benzo[h]chomen-4-one]
AMPK activation ([1]; DNA-PK−/− MEFs, FIG. 52A): significantly enhanced | AMPK activation ([1]; LKB1-null MEFs, FIG. 52B): not in LKB1-null MEFs | AMPK activation ([1]; wild-type MEFs, FIG. 52): activated | serum glucose levels [2]: decreased serum glucose levels | time remaining on a hot surface [3]: remain on a hot surface for longer periods of time | pain sensation ([3]; hot plate): decreased pain sensation | blood-brain barrier (BBB) penetration [4]: can penetrate the blood-brain barrier (BBB) efficiently | LKB1 activity in muscles [5]: strong induction of LKB1 activity | IC50 [6]: 13 µM | induction of DNA-PKcs activation by ionizing radiation ([7]; MCF7 cells in 25 mM glucose): able to depress the induction of DNA-PKcs activation | basal activity of DNA-PKcs ([7]; MCF-7 cells in 25 mM glucose, no ionizing radiation): suppressed | time in the dark compartment [8]: less time in the dark compartment | time in the light compartment [8]: more time in the light compartment | time to enter the light chamber [8]: quicker to enter the light chamber | mitochondrial DNA copy number increase [9]: > 1.8 fold | AMPK activation [10]: activated AMPK
